How the values were obtained:
BRM = biological target: T1, BRM (Homo sapiens, UniProt P51531); experiment: ATPase catalytic activity of BRM, ADP-Glo in vitro biochemical assay; settings: for IC50: ADP-Glo ATPase assay, 30 nM BRM, 400 μM ATP; for Ratio* (BRG1 IC50 (μM) divided by BRM IC50 (μM)): selectivity ratio BRG1 IC50 / BRM IC50
T1 construct: made in house; host or cells: High Five insect cells
Procedure: (§1) The ATPase catalytic activity of BRM or BRG-1 was measured by an in vitro biochemical assay using ADP-Glo™ (Promega, V9102). The ADP-Glo™ kinase assay is performed in two steps once the reaction is complete. The first step is to deplete any unconsumed ATP in the reaction. The second step is to convert the reaction product ADP to ATP, which will be utilized by the luciferase to generate luminesce and be detected by a luminescence reader, such as Envision.
The assay reaction mixture ([…]) contains 30 nM of BRM or BRG-1, 20 nM salmon sperm DNA (from Invitrogen, UfraPure™ Salmon Sperm DNA Solution, cat #15632011), and 400 μM of ATP in the ATPase assay buffer, which comprises of 20 mM Tris, pH 8, 20 mM MgCl2, 50 mM NaCl, 0.1% Tween-20, and 1 mM fresh DTT (Piercer™ DTT (Dithiothreitol), cat #20290). The reaction is initiated by the addition of the 2.5 μL ATPase solution to 2.5 μL ATP/DNA solution on low volume white Proxiplate-384 plus plate (PerkinElmer, cat #6008280) and incubates at room temperature for 1 hour. Then, following addition of 5 μL of ADP-Glo™ Reagent provided in the kit, the reaction incubates at room temperature for 40 minutes. Then, 10 μL of Kinase Detection Reagent provided in the kit is added to convert ADP to ATP, and the reaction incubates at room temperature for 60 minutes. Finally, luminescence measurement is collected with a plate-reading luminometer, such as Envision.

BRG-1 = biological target: T2, BRG-1 (Homo sapiens, UniProt P51532); experiment: ATPase catalytic activity of BRG-1, ADP-Glo in vitro biochemical assay; settings: ADP-Glo ATPase assay, 30 nM BRG-1, 400 μM ATP; read-out: BRG1 IC50
T2 construct: made in house; host or cells: High Five insect cells
Procedure: as §1
Then, following addition of 5 μL of ADP-Glo™ Reagent provided in the kit, the reaction incubates at room temperature for 40 minutes. Then, 10 μL of Kinase Detection Reagent provided in the kit is added to convert ADP to ATP, and the reaction incubates at room temperature for 60 minutes. Finally, luminescence measurement is collected with a plate-reading luminometer, such as Envision.

T2 sequence (P51532 whole entry): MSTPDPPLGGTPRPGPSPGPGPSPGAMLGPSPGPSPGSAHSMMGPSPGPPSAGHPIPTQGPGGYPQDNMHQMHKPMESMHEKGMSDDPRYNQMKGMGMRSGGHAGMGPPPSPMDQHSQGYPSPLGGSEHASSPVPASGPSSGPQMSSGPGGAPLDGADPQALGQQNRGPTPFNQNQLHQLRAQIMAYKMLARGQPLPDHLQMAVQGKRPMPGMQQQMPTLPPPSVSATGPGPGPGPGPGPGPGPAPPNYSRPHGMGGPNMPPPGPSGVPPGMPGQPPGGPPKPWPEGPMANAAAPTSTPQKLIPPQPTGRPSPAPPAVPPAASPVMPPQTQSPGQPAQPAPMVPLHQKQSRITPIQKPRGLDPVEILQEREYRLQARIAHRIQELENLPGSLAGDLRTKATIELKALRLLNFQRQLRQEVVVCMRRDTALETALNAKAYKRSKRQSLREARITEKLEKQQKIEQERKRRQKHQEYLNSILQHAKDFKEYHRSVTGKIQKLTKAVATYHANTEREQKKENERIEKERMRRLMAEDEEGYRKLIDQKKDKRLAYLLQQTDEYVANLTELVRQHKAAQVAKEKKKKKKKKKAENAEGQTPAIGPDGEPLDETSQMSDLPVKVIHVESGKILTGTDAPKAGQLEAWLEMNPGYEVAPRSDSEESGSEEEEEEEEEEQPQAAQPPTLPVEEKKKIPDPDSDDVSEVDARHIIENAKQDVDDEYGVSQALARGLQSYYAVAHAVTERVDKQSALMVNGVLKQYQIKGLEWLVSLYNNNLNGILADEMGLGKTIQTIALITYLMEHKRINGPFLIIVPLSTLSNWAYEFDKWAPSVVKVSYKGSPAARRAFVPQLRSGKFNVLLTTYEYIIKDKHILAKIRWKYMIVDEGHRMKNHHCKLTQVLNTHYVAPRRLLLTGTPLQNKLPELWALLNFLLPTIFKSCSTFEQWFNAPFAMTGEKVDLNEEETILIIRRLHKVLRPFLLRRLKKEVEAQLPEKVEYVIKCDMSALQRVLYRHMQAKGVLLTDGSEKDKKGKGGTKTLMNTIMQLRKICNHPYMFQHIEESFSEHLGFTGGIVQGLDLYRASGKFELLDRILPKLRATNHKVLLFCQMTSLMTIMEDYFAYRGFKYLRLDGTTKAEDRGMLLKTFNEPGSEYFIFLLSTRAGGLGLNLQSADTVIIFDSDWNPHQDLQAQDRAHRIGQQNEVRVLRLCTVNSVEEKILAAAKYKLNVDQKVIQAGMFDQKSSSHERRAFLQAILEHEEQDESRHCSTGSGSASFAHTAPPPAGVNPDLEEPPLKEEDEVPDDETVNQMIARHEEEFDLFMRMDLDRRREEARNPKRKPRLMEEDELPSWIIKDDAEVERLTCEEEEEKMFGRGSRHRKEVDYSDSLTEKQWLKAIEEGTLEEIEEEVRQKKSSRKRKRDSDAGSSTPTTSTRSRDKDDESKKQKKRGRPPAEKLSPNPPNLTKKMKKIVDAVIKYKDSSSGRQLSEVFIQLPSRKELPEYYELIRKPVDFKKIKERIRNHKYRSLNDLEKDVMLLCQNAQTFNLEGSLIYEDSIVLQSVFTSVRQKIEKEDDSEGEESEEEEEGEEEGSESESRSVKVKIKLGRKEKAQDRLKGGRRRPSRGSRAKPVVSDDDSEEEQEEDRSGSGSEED
T1 sequence (P51531 whole entry): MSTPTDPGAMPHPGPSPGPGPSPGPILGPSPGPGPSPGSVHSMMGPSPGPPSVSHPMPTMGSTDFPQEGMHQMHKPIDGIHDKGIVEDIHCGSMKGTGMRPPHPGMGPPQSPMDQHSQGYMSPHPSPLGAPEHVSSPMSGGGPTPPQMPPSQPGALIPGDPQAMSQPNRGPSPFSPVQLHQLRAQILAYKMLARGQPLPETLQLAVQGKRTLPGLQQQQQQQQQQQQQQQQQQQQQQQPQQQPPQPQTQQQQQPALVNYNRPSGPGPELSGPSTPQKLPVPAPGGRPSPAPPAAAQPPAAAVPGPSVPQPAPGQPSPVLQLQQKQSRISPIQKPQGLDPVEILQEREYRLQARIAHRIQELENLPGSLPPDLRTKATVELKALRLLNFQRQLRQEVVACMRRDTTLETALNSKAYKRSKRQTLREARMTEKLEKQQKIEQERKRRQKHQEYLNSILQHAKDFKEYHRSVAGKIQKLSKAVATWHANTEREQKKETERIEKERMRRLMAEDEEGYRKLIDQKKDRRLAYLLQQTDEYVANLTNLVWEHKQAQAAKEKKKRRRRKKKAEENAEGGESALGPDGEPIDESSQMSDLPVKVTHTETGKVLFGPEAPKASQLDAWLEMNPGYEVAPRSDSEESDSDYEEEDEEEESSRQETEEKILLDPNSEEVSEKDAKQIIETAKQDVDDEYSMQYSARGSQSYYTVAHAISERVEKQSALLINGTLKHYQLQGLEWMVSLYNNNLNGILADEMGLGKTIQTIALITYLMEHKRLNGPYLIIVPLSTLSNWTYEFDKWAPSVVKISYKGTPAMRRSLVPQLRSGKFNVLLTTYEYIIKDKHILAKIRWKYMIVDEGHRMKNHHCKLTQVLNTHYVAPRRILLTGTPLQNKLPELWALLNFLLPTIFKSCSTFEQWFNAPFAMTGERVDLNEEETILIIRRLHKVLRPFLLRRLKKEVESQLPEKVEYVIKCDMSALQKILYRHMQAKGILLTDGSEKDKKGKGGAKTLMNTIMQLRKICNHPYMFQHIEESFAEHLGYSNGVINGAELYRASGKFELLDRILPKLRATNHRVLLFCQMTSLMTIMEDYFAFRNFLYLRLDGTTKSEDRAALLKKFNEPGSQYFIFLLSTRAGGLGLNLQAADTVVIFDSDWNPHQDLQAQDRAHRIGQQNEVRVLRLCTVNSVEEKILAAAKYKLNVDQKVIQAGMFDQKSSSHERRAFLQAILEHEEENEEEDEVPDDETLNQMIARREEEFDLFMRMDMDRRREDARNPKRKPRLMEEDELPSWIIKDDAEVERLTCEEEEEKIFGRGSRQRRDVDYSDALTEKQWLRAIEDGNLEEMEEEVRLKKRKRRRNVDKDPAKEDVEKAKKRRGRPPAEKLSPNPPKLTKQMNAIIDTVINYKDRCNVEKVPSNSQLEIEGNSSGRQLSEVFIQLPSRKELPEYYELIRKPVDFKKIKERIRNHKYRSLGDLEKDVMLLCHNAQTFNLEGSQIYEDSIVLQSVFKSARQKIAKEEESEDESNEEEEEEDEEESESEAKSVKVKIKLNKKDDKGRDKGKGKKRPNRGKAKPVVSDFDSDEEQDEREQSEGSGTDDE

Row | SMILES | IC50 (BRM) | Ratio* (BRG1 IC50 (μM) divided by BRM IC50 (μM)) (BRM) | IC50 (BRG-1)
1 | CC1OCCS(=O)(=O)c2cc(C(=O)NCc3cc4nc(-c5cccc(N6C[C@@H](C)O[C@@H](C)C6)n5)ccc4cn3)ccc21 (some centres unmarked) [Compound 54] | 0.0095 µM | 4.70 | 0.0447 µM
2 | CO[C@H](C)CN(C)c1cccc(-c2ccc3cnc(CNC(=O)c4ccc5c(c4)S(=O)(=O)CCOC5)cc3n2)n1 [Compound 55] | 0.0253 µM | 9.45 | 0.239 µM
3 | C[C@@H]1CN(c2cccc(-c3cnc4cnc(CNC(=O)c5ccc(C(F)F)c(S(C)(=O)=O)c5)cc4n3)n2)C[C@H](C)O1 [Compound 56] | 0.0136 µM | 17.62 | 0.24 µM
4 | O=C(NCc1cc2nc(-c3cccc(N4CCC4)n3)ccc2nn1)c1ccc2c(c1)S(=O)(=O)CCOC2 [Compound 57] | 0.008 µM | – | 0.118 µM
5 | CN1CCOc2c(-c3ccc4cnc(CNC(=O)c5ccc6c(c5)S(=O)(=O)CCOC6)cc4n3)ccnc21 [Compound 58] | 0.0969 µM | 5.63 | 0.546 µM
6 | CCc1cc(C(=O)NCc2cc3nc(-c4cccc(N5C[C@@H](C)O[C@@H](C)C5)n4)ccc3cn2)cc2c1COCCS2(=O)=O [Compound 59] | 0.073 µM | 10.68 | 0.78 µM
7 | COC[C@@H](C)Nc1cccc(-c2ccc3cnc(CNC(=O)c4ccc(C(F)F)c(S(C)(=O)=O)c4)cc3n2)n1 [Compound 60] | 0.789 µM | 6.34 | 5 µM
8 | COC[C@H](C)Nc1cccc(-c2ccc3cnc(CNC(=O)c4ccc(C(F)F)c(S(C)(=O)=O)c4)cc3n2)n1 [Compound 61] | 0.956 µM | 5.23 | 5 µM
9 | CCN(CC)c1cccc(-c2ccc3cnc(CNC(=O)c4cc(F)c5c(c4)S(=O)(=O)CCOC5)cc3n2)n1 [Compound 62] | 0.0189 µM | 13.08 | 0.247 µM
10 | O=C(NCc1cc2nc(-c3cccc(C4CC4)n3)ccc2cn1)c1cc(F)c2c(c1)S(=O)(=O)CCOC2 [Compound 63] | 0.0214 µM | 29.53 | 0.633 µM
11 | CO[C@@H](C)CN(C)c1cccc(-c2ccc3cnc(CNC(=O)c4ccc5c(c4)S(=O)(=O)CCOC5)cc3n2)n1 [Compound 64] | 0.0175 µM | 19.39 | 0.34 µM
12 | CCO[C@@H]1CCOc2c(-c3ccc4cnc(CNC(=O)c5ccc6c(c5)S(=O)(=O)CCOC6)cc4n3)cccc21 [Compound 65] | 0.0162 µM | 6.14 | 0.0997 µM
13 | CCO[C@H]1CCOc2c(-c3ccc4cnc(CNC(=O)c5ccc6c(c5)S(=O)(=O)CCOC6)cc4n3)cccc21 [Compound 66] | 0.211 µM | 7.78 | 1.64 µM
14 | CN[C@H]1CCN(c2cccc(-c3ccc4cnc(CNC(=O)c5ccc6c(c5)S(=O)(=O)CCOC6)cc4n3)n2)CC1(F)F [Compound 67] | 0.0894 µM | 6.55 | 0.586 µM
15 | CO[C@H](C)c1cccc(-c2ccc3cnc(CNC(=O)c4ccc5c(c4)S(=O)(=O)CCOC5)cc3n2)n1 [Compound 68] | 0.433 µM | 11.38 | 4.93 µM
16 | CO[C@@H](C)c1cccc(-c2ccc3cnc(CNC(=O)c4ccc5c(c4)S(=O)(=O)CCOC5)cc3n2)n1 [Compound 69] | 0.262 µM | 9.44 | 2.47 µM

Row | SMILES | IC50 (BRM) | Ratio* (BRG1 IC50 (μM) divided by BRM IC50 (μM)) (BRM) | IC50 (BRG-1)
17 | COC[C@H](C)N(C)c1cccc(-c2ccc3cnc(CNC(=O)c4ccc5c(c4)S(=O)(=O)CCOC5)cc3n2)n1 [Compound 70] | 0.0368 µM | 11.02 | 0.406 µM
18 | CN(CC1COC1)c1cccc(-c2ccc3cnc(CNC(=O)c4ccc5c(c4)S(=O)(=O)CCOC5)cc3n2)n1 [Compound 71] | 0.0239 µM | 11.93 | 0.285 µM
19 | COC[C@@H](C)N(C)c1cccc(-c2ccc3cnc(CNC(=O)c4ccc5c(c4)S(=O)(=O)CCOC5)cc3n2)n1 [Compound 72] | 0.224 µM | 5.48 | 1.23 µM
20 | CCN(CCOC)c1cccc(-c2ccc3cnc(CNC(=O)c4ccc5c(c4)S(=O)(=O)CCOC5)cc3n2)n1 [Compound 73] | 0.0068 µM | 11.74 | 0.0794 µM
21 | O=C(NCc1cc2nc(-c3cccc(OC4CC(F)(F)C4)n3)ccc2cn1)c1ccc2c(c1)S(=O)(=O)CCOC2 [Compound 74] | 0.122 µM | 9.63 | 1.18 µM
22 | C[C@@H]1CN(c2cccc(-c3ccc4cnc(CNC(=O)c5cc(C6CC6)c6c(c5)S(=O)(=O)CCOC6)cc4n3)n2)C[C@H](C)O1 [Compound 75] | 0.0346 µM | 19.65 | 0.681 µM
23 | CS(=O)(=O)c1cc(C(=O)NCc2cc3nc(-c4cccc(N5CC[C@H]6COC[C@H]6C5)n4)ccc3cn2)ccc1Cl [Compound 76] | 0.0457 µM | 14.90 | 0.682 µM
24 | CS(=O)(=O)c1cc(C(=O)NCc2cc3nc(-c4cccc(N5CC[C@@H]6COC[C@@H]6C5)n4)ccc3cn2)ccc1Cl [Compound 77] | 0.0775 µM | 13.85 | 1.07 µM
25 | O=C(NCc1cc2nc(-c3cccc(N4CCCOCC4)n3)ccc2cn1)c1ccc2c(c1)S(=O)(=O)CCOC2 [Compound 78] | 0.019 µM | 10.42 | 0.198 µM
26 | CN(C)[C@@H]1CCN(c2cccc(-c3ccc4cnc(CNC(=O)c5ccc6c(c5)S(=O)(=O)CCOC6)cc4n3)n2)CC1(F)F [Compound 79] | 0.0146 µM | 7.89 | 0.116 µM
27 | COCCNc1cccc(-c2ccc3cnc(CNC(=O)c4ccc(C(F)F)c(S(C)(=O)=O)c4)cc3n2)n1 [Compound 80] | 0.176 µM | 11.75 | 2.07 µM
28 | CN(C)[C@H]1CCN(c2cccc(-c3ccc4cnc(CNC(=O)c5ccc6c(c5)S(=O)(=O)CCOC6)cc4n3)n2)CC1(F)F [Compound 81] | 0.275 µM | 6.33 | 1.74 µM
29 | C[C@@H]1CN(c2cccc(-c3ccc4cnc(CNC(=O)c5cccc(S(C)(=O)=O)c5Cl)cc4n3)n2)C[C@H](C)O1 [Compound 82] | 0.427 µM | 11.71 | 5 µM
30 | CCN(CC)c1cccc(-c2ccc3cnc(CNC(=O)c4ccc5c(c4)S(=O)(=O)CCOC5)cc3n2)n1 [Compound 83] | 0.0081 µM | 16.64 | 0.135 µM
31 | COCCN1CCCc2c(-c3ccc4cnc(CNC(=O)c5ccc6c(c5)S(=O)(=O)CCOC6)cc4n3)cccc21 [Compound 84] | 0.121 µM | 4.71 | 0.57 µM
32 | Cc1cc2ccc(-c3ccc4cnc(CNC(=O)c5ccc6c(c5)S(=O)(=O)CCOC6)cc4n3)nc2n1C [Compound 85] | 0.0157 µM | 8.19 | 0.129 µM

— patent US20230416248A1, “COMPOUNDS AND USES THEREOF” (Foghorn Therapeutics Inc., priority 2020, published 2023)
